Data on 4 molecules can be found in article PMC3588010, “Effect of Human Flavin-Containing Monooxygenase 3 Polymorphism on the Metabolism of Aurora Kinase Inhibitors” (International Journal of Molecular Sciences, 2013).

One data set addresses T1, wild type hFMO3 (Homo sapiens, UniProt P31513).
T1 construct: made in house; host or cells: E. coli JM109 (vector pJL2)
T1 sequence (P31513 1-532): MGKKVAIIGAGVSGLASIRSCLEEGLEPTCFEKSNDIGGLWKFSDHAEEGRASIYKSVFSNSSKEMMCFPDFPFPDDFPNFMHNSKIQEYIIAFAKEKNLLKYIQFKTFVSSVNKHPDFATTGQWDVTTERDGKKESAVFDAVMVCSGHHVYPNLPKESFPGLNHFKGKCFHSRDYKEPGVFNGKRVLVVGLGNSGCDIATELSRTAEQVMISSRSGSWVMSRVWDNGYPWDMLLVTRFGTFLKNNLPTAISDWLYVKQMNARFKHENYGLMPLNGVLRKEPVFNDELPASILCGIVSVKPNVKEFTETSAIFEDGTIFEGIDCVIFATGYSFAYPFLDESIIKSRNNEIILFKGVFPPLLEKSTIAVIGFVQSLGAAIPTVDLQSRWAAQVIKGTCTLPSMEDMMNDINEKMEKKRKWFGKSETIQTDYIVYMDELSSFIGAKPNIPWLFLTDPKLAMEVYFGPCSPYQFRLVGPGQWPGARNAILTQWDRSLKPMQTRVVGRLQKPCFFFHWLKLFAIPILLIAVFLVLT
The experiment in a line: N-oxygenation kinetics with purified wild-type hFMO3 (LC-MS). It counts as in vitro ADME. On the procedure: (§1) Enzymatic reactions were carried out with the purified WT and V257M polymorphic variant in the presence of NADPH and increasing amounts of each substrate as reported in the experimental section. […] The kcat and Km values for V257M were approximately half of that of the wild-type (Figure 3A,B) and the kcat for the wild-type enzyme was at least twice as much of the kcat for V257M.
(§2) The enzyme and NADPH were mixed first and the reaction was initiated by the addition of substrate, preventing thermal degradation of the enzyme. […] The incubations were terminated by the addition of 0.10 mL of ice-cold methanol and 150 μL verapamil as internal standard (IS).
(§3) Prior to LC-MS analysis the reaction mixtures were filtered through a Microcon centrifugal membrane with 3 kDa cutoff (Millipore, Billercia, MA, USA). Substrates and their metabolites were separated using Agilent 1200 HPLC (Agilent Technologies Inc., Santa Clara, CA, USA) equipped with a narrow bore reversed-phase column Zorbax Eclipse XDB-C18, 2.1 × 150 mm, 3.5 μm (Agilent Technologies, Santa Clara, CA, USA) and using a binary solvent system composed of double distilled water with 0.01% formic acid (A), and acetonitrile (ACN) with 0.1% formic acid (B) at flow rate of 0.2 mL min^−1. The initial mobile phase was composed of 20% of solvent B and it was increased to 70% over a period of 3 min and kept 4 min for isocratic separations of substrate, metabolite and internal standard (IS). Finally, the organic solvent was increased to 100% in 30 s for washing the column. Before follower injection, initial mobile phase was re-established for 10 min.
(§4) For quantitative purpose, standards and samples were analysed by LC-ESI-MS/MS in MRM mode using the above-indicated parameters. […] Spectral data were processed using data analysis software of 6300 Series Ion Trap LC/MS 4.0 (Bruker Daltonik GmbH, Bremen, Germany). Metabolite formation was quantified by comparing peak area ratios (metabolite/internal standard) of four data sets of incubations for each Michaelis-Menten curve to ratios obtained from a standard curve containing known amounts of the […].

A further data set addresses T2, V257M hFMO3 (Homo sapiens, UniProt P31513, V257M).
T2 construct: made in house; host or cells: E. coli JM109 (vector pJL2)
T2 sequence (P31513 1-532 V257M): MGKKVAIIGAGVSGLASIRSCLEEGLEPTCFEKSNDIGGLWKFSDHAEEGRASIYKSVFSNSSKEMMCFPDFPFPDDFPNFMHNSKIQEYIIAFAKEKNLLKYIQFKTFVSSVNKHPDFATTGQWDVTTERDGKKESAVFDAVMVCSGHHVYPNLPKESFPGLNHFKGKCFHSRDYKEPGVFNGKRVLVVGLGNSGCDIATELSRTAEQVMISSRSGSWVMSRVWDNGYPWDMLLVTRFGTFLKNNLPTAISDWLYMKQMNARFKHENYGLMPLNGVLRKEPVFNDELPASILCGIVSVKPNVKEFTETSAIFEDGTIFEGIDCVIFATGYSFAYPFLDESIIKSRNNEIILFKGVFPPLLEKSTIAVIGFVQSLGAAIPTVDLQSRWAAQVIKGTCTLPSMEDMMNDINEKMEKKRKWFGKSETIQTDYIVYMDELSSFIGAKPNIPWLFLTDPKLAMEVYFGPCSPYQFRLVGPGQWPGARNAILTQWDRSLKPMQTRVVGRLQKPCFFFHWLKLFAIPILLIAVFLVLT
As to the kind of experiment: N-oxygenation kinetics with purified V257M polymorphic variant of hFMO3 (LC-MS). Type of data set: in vitro ADME. On the procedure: as §1, §2, §3, §4

Substrate in data set [1]: Cc1cc(Nc2cc(N3CCN(C)CC3)nc(Sc3ccc(NC(=O)C4CC4)cc3)n2)[nH]n1
The experiment in a line: N-oxygenation kinetics with purified wild-type hFMO3 (LC-MS). Particulars: other: WT hFMO3, N-oxide formation, 0.17 μM enzyme, 0.5 mM NADPH, pH 7.4, 37 °C. Type of data set: in vitro ADME, human. On the procedure: as §1, §2, §3, §4

Substrate in data set [2]: CO[C@@H](C(=O)N1Cc2n[nH]c(NC(=O)c3ccc(N4CCN(C)CC4)cc3)c2C1)c1ccccc1
The data set is described as above. As to conditions: other: WT hFMO3, N-oxide formation, 0.17 μM enzyme, 0.5 mM NADPH, pH 7.4, 37 °C. It counts as in vitro ADME, human. On the procedure:
as §1, §2, §3, §4

Substrate in data set [3]: Cc1cc(Nc2cc(N3CCN(C)CC3)nc(Sc3ccc(NC(=O)C4CC4)cc3)n2)[nH]n1
The experiment in a line: N-oxygenation kinetics with purified V257M polymorphic variant of hFMO3 (LC-MS). It counts as in vitro ADME, human. As to conditions: other: V257M hFMO3, N-oxide formation, 0.17 μM enzyme, 0.5 mM NADPH, pH 7.4, 37 °C. On the procedure: as §1, §2, §3, §4

Substrate in data set [4]: CO[C@@H](C(=O)N1Cc2n[nH]c(NC(=O)c3ccc(N4CCN(C)CC4)cc3)c2C1)c1ccccc1
Described as above. It counts as in vitro ADME, human. As to conditions: other: V257M hFMO3, N-oxide formation, 0.17 μM enzyme, 0.5 mM NADPH, pH 7.4, 37 °C. On the procedure: as §1, §2, §3, §4

The mark [5] stands for this setting: WT hFMO3, N-oxide formation, pH 7.4, 37 °C.
Where [6] appears, read: V257M hFMO3, N-oxide formation, pH 7.4, 37 °C.
Where [7] appears, read: V257M hFMO3, N-oxide formation, values in text.

For orientation: kcat means the number of substrate molecules converted per active site and unit of time at saturation. With `CO[C@@H](C(=O)N1Cc2n[nH]c(NC(=O)c3ccc(N4CCN(C)CC4)cc3)c2C1)c1ccccc1` [Danusertib], the Vmax at wild type hFMO3 (setting [5]) is 0.57 ± 0.03 nmol/min/mg FMO3; on wild type hFMO3 (wild-type enzyme, values in text), 0.57 nmol min^−1 mg FMO3; at V257M hFMO3 (setting [6]), 0.18 ± 0.01 nmol/min/mg FMO3; at V257M hFMO3 (V257M, values in text) it was 0.18 nmol min^−1 mg FMO3. The kcat at wild type hFMO3 (setting [5]) came out at 0.165 s⁻¹; on V257M hFMO3 (setting [7]), 0.0533 s⁻¹.

As to `Cc1cc(Nc2cc(N3CCN(C)CC3)nc(Sc3ccc(NC(=O)C4CC4)cc3)n2)[nH]n1` [Tozasertib], the Vmax is reported as 0.54 ± 0.02 nmol/min/mg FMO3 on wild type hFMO3 (setting [5]); 536 pmol/min/mg FMO3 at wild type hFMO3 (wild type hFMO3, values in text); 0.25 ± 0.01 nmol/min/mg FMO3 on V257M hFMO3 (setting [6]); 248 pmol/min/mg FMO3 on V257M hFMO3 (V257M hFMO3, values in text). In addition, the kcat on wild type hFMO3 (setting [5]) was 0.155 s⁻¹; on V257M hFMO3 (setting [7]), 0.0717 s⁻¹.

B1: wild type hFMO3 (Homo sapiens) (protein)
chain: MGKKVAIIGAGVSGLASIRSCLEEGLEPTCFEKSNDIGGLWKFSDHAEEGRASIYKSVFSNSSKEMMCFPDFPFPDDFPNFMHNSKIQEYIIAFAKEKNLLKYIQFKTFVSSVNKHPDFATTGQWDVTTERDGKKESAVFDAVMVCSGHHVYPNLPKESFPGLNHFKGKCFHSRDYKEPGVFNGKRVLVVGLGNSGCDIATELSRTAEQVMISSRSGSWVMSRVWDNGYPWDMLLVTRFGTFLKNNLPTAISDWLYVKQMNARFKHENYGLMPLNGVLRKEPVFNDELPASILCGIVSVKPNVKEFTETSAIFEDGTIFEGIDCVIFATGYSFAYPFLDESIIKSRNNEIILFKGVFPPLLEKSTIAVIGFVQSLGAAIPTVDLQSRWAAQVIKGTCTLPSMEDMMNDINEKMEKKRKWFGKSETIQTDYIVYMDELSSFIGAKPNIPWLFLTDPKLAMEVYFGPCSPYQFRLVGPGQWPGARNAILTQWDRSLKPMQTRVVGRLQKPCFFFHWLKLFAIPILLIAVFLVLT
notes: made in house; host or cells: E. coli JM109 (vector pJL2)
By Km is commonly meant the concentration of substrate that gives half-maximal velocity. One may read the kcat/Km as the turnover number divided by the Michaelis constant. Take B1: in data set [1], the Km turned out to be 23.8 ± 3.4 µM, the kcat was determined as 0.155 ± 0.005 s⁻¹ and the kcat/Km was determined as 6500 ± 1000 M⁻¹ s⁻¹. Besides, in data set [2], the Km turned out to be 57.3 ± 8.3 µM, the kcat was 0.165 ± 0.01 s⁻¹ and the specificity constant (kcat/Km) came to 2830 ± 500 M⁻¹ s⁻¹.

B2: V257M hFMO3 (Homo sapiens; V257M) (protein)
chain: MGKKVAIIGAGVSGLASIRSCLEEGLEPTCFEKSNDIGGLWKFSDHAEEGRASIYKSVFSNSSKEMMCFPDFPFPDDFPNFMHNSKIQEYIIAFAKEKNLLKYIQFKTFVSSVNKHPDFATTGQWDVTTERDGKKESAVFDAVMVCSGHHVYPNLPKESFPGLNHFKGKCFHSRDYKEPGVFNGKRVLVVGLGNSGCDIATELSRTAEQVMISSRSGSWVMSRVWDNGYPWDMLLVTRFGTFLKNNLPTAISDWLYMKQMNARFKHENYGLMPLNGVLRKEPVFNDELPASILCGIVSVKPNVKEFTETSAIFEDGTIFEGIDCVIFATGYSFAYPFLDESIIKSRNNEIILFKGVFPPLLEKSTIAVIGFVQSLGAAIPTVDLQSRWAAQVIKGTCTLPSMEDMMNDINEKMEKKRKWFGKSETIQTDYIVYMDELSSFIGAKPNIPWLFLTDPKLAMEVYFGPCSPYQFRLVGPGQWPGARNAILTQWDRSLKPMQTRVVGRLQKPCFFFHWLKLFAIPILLIAVFLVLT
notes: as for B1
As to B2, in data set [3], the Km turned out to be 12.9 ± 1.3 µM, the kcat is 0.0717 s⁻¹ and the kcat/Km worked out at 5500 ± 667 M⁻¹ s⁻¹. Moreover, in data set [4], the Km was determined as 60.1 ± 11.4 µM, the kcat is 0.0533 s⁻¹ and the kcat/Km was determined as 833 ± 167 M⁻¹ s⁻¹.
